Data: ChEMBL document CHEMBL4177762, “Combined Approach of Backbone Amide Linking and On-Resin N-Methylation for the Synthesis of Bioactive and Metabolically Stable Peptides” (J Med Chem, 2018)
Values after ≈ are worked out from the molar mass of the structure shown. Values belong to the compound of their own block, whether it stands above or below them. Active and inactive are the calls of the source. The rule behind the calls is not given here. Non-standard residues stand in square brackets, D forms with d. Residues, ends and D or L forms follow the SMILES beside them. *: point of attachment. NMeVal(β-OH) = CN[C@H](C(=O)O)C(C)(C)O; NH(4-OH-phenethyl) = Oc1ccc(CCN*)cc1; Tryptamide = c1ccc2c(CCN*)c[nH]c2c1; Val(3-OH) = CC(C)(O)[C@H](N)C(=O)O; NMeF = CN[C@@H](Cc1ccccc1)C(=O)O; NMeL = CN[C@@H](CC(C)C)C(=O)O; NHPhenethyl = c1ccc(CCN*)cc1; NMeV = CN[C@H](C(=O)O)C(C)C

Legend:
[1] = Drug metabolism in Sprague-Dawley rat liver microsomes assessed as CYP450-mediated (S)-2-amino-N-((S)-1-((S)-1-((S)-1-(4-hydroxyphenethylamino)-3-methyl-1-oxobutan-2-ylamino)-3-methyl-1-oxobutan-2-ylamino)-3-methyl-1-oxobutan-2-yl)-3-methylbutanamide formation at 1 mM preincubated with NADPH regenerating system followed by microsome addition measured after 15 to 60 mins by HR-HPLC-MS method; assay type: ADME; settings: 1000 µM
[2] = Drug metabolism in Sprague-Dawley rat liver microsomes assessed as CYP450-mediated (S)-2-((S)-2-((S)-2-amino-3-methylbutanamido)-3-methylbutanamido)-3-hydroxy-3-methyl-N-((S)-3-methyl-1-oxo-1-(phenethylamino)butan-2-yl)butanamide formation at 1 mM preincubated with NADPH regenerating system followed by microsome addition measured after 15 to 60 mins by HR-HPLC-MS method; assay type: ADME; settings: 1000 µM
[3] = Half life in Galleria mellonella hemolymph plasma at 0.5 mM by HPLC-MS method; assay type: ADME, cell-free
[4] = Drug metabolism in Sprague-Dawley rat liver microsomes assessed as CYP450-mediated (S)-2-((S)-2-amino-3-methylbutanamido)-3-hydroxy-3-methyl-N-((S)-3-methyl-1-((S)-3-methyl-1-oxo-1-(phenethylamino)butan-2-ylamino)-1-oxobutan-2-yl)butanamide formation at 1 mM preincubated with NADPH regenerating system followed by microsome addition measured after 15 to 60 mins by HR-HPLC-MS method; assay type: ADME; settings: 1000 µM
[5] = Drug level in Sprague-Dawley rat liver microsomes assessed as CYP450-mediated compound formation treated with (S)-2-amino-3-methyl-N-((S)-3-methyl-1-((S)-3-methyl-1-((S)-3-methyl-1-oxo-1-(phenethylamino)butan-2-ylamino)-1-oxobutan-2-ylamino)-1-oxobutan-2-yl)butanamide at 1 mM preincubated with NADPH regenerating system followed by microsome addition measured after 15 to 60 mins by HR-HPLC-MS method; assay type: ADME; settings: 1000 µM
[6] = tested on: Trypanosoma brucei rhodesiense; assay: Antiprotozoal activity against trypomastigote stage of Trypanosoma brucei rhodesiense STIB900 after 72 hrs by Alamar Blue assay; assay type: functional, organism-based
L6 = assay: Cytotoxicity against rat L6 cells after 72 hrs by Alamar Blue assay; assay type: cell-based; settings: L6, 72 h
Escherichia coli = assay: Antibacterial activity against Escherichia coli ATCC 25922 assessed as growth inhibition up to 128 ug/ml; assay type: functional, organism-based
Enterococcus faecalis = assay: Antibacterial activity against Enterococcus faecalis ATCC 29212 assessed as growth inhibition up to 128 ug/ml; assay type: functional, organism-based
Staphylococcus aureus [7] = assay: Antibacterial activity against Staphylococcus aureus ATCC 29213 assessed as growth inhibition up to 128 ug/ml; assay type: functional, organism-based
Staphylococcus aureus [8] = assay: Antibacterial activity against methicillin-resistant Staphylococcus aureus ATCC 43300 assessed as growth inhibition up to 128 ug/ml; assay type: functional, organism-based
Pseudomonas aeruginosa = assay: Antibacterial activity against Pseudomonas aeruginosa ATCC 27853 assessed as growth inhibition up to 128 ug/ml; assay type: functional, organism-based
Micrococcus luteus = assay: Antibacterial activity against Micrococcus luteus ATCC 9341 assessed as growth inhibition up to 128 ug/ml; assay type: functional, organism-based
[9] = Drug level in Sprague-Dawley rat liver microsomes assessed as CYP450-mediated compound formation treated with (S)-2-((S)-N,3-dimethyl-2-(methylamino)butanamido)-N,3-dimethyl-N-((S)-3-methyl-1-(methyl((S)-3-methyl-1-oxo-1-(phenethylamino)butan-2-yl)amino)-1-oxobutan-2-yl)butanamide at 1 mM preincubated with NADPH regenerating system followed by microsome addition measured after 15 to 60 mins by HR-HPLC-MS method; assay type: ADME; settings: 1000 µM
[10] = Passive permeability of the compound at 500 uM after 5 hrs by PAMPA; assay type: ADME
Plasmodium falciparum = assay: Antiprotozoal activity against IEF stage of Plasmodium falciparum NF54 after 48 hrs by [3H]-hypoxanthine incorporation assay; assay type: functional, organism-based
[11] = Drug metabolism in Sprague-Dawley rat liver microsomes assessed as CYP450-mediated (S)-2-((S)-N,3-dimethyl-2-(methylamino)butanamido)-N-((S)-1-(((S)-1-(4-hydroxyphenethylamino)-3-methyl-1-oxobutan-2-yl)(methyl)amino)-3-methyl-1-oxobutan-2-yl)-N,3-dimethylbutanamide formation at 1 mM preincubated with NADPH regenerating system followed by microsome addition measured after 15 to 60 mins by HR-HPLC-MS method; assay type: ADME; settings: 1000 µM
[12] = Drug metabolism in Sprague-Dawley rat liver microsomes assessed as CYP450-mediated (S)-3-hydroxy-N,3-dimethyl-N-((S)-3-methyl-1-(methyl((S)-3-methyl-1-(methyl((S)-3-methyl-1-oxo-1-(phenethylamino)butan-2-yl)amino)-1-oxobutan-2-yl)amino)-1-oxobutan-2-yl)-2-(methylamino)butanamide formation at 1 mM preincubated with NADPH regenerating system followed by microsome addition measured after 15 to 60 mins by HR-HPLC-MS method; assay type: ADME; settings: 1000 µM

Compound: CN[C@@H](CC(C)C)C(=O)N(C)[C@@H](CC(C)C)C(=O)N(C)[C@@H](CC(C)C)C(=O)N(C)[C@@H](CC(C)C)C(=O)NCCc1ccccc1
- IC50 ([6]; STIB900, 72 h): 1.4 to 2.1 µg/mL (≈ 2.22 to 3.33 µM)
- IC50 (L6): 16.7 µg/mL (≈ 26.5 µM)
- growth inhibition (GI) (Escherichia coli): inactive
- growth inhibition (GI) (Enterococcus faecalis): inactive
- growth inhibition (GI) (Staphylococcus aureus [7]): inactive
- growth inhibition (GI) (Staphylococcus aureus [8]): inactive
- growth inhibition (GI) (Pseudomonas aeruginosa): inactive
- growth inhibition (GI) (Micrococcus luteus): inactive

Compound: CN[C@H](C(=O)N(C)[C@H](C(=O)N(C)[C@H](C(=O)N(C)[C@H](C(=O)NCCc1ccc(O)cc1)C(C)C)C(C)C)C(C)C)C(C)C (H-[NMeV][NMeV][NMeV][NMeV]-{NH(4-OH-phenethyl)})
- Drug metabolism [9]: Metabolite_Detected

Compound: CN[C@@H](Cc1ccccc1)C(=O)N(C)[C@@H](Cc1ccccc1)C(=O)N(C)[C@@H](Cc1ccccc1)C(=O)N(C)[C@@H](Cc1ccccc1)C(=O)N(C)[C@@H](Cc1ccccc1)C(=O)NCCc1ccccc1 (H-[NMeF][NMeF][NMeF][NMeF][NMeF]-NHPhenethyl)
- Activity [6]: Active
- IC50 (Plasmodium falciparum): 0.2 µg/mL (≈ 0.216 µM)
- growth inhibition (GI) (Escherichia coli): inactive
- growth inhibition (GI) (Enterococcus faecalis): inactive
- growth inhibition (GI) (Staphylococcus aureus [7]): inactive
- growth inhibition (GI) (Staphylococcus aureus [8]): inactive
- growth inhibition (GI) (Pseudomonas aeruginosa): inactive
- growth inhibition (GI) (Micrococcus luteus): inactive

Compound: CN[C@H](C(=O)N(C)[C@H](C(=O)N(C)[C@H](C(=O)N(C)[C@@H](Cc1ccccc1)C(=O)NCCc1ccccc1)C(C)C)C(C)C)C(C)C (H-[NMeV][NMeV][NMeV][NMeF]-NHPhenethyl)
- permeability [10]: Permeable

Compound: CN[C@@H](CC(C)C)C(=O)N(C)[C@@H](CC(C)C)C(=O)N(C)[C@@H](CC(C)C)C(=O)N(C)[C@@H](CC(C)C)C(=O)NCCc1ccc(O)cc1 (H-[NMeL][NMeL][NMeL][NMeL]-{NH(4-OH-phenethyl)})
- IC50 (L6): 30.6 µg/mL (≈ 47.4 µM)
- growth inhibition (GI) (Escherichia coli): inactive
- growth inhibition (GI) (Enterococcus faecalis): inactive
- growth inhibition (GI) (Staphylococcus aureus [7]): inactive
- growth inhibition (GI) (Staphylococcus aureus [8]): inactive
- growth inhibition (GI) (Pseudomonas aeruginosa): inactive
- growth inhibition (GI) (Micrococcus luteus): inactive

Compound: CN[C@H](C(=O)N(C)[C@H](C(=O)N(C)[C@H](C(=O)N(C)[C@H](C(=O)NCCc1ccccc1)C(C)C)C(C)C)C(C)C)C(C)C (H-[NMeV][NMeV][NMeV][NMeV]-NHPhenethyl)
- Activity [6]: Active
- Drug metabolism [11]: Metabolite_Detected
- half-life at 500 µM [3]: > 240 min
- growth inhibition (GI) (Escherichia coli): inactive
- growth inhibition (GI) (Enterococcus faecalis): inactive
- growth inhibition (GI) (Staphylococcus aureus [7]): inactive
- growth inhibition (GI) (Staphylococcus aureus [8]): inactive
- Drug metabolism [12]: Metabolite_Detected
- growth inhibition (GI) (Pseudomonas aeruginosa): inactive
- growth inhibition (GI) (Micrococcus luteus): inactive

Compound: CN[C@@H](CC(C)C)C(=O)N(C)[C@@H](CC(C)C)C(=O)N(C)[C@@H](CC(C)C)C(=O)N(C)[C@@H](CC(C)C)C(=O)NCCc1c[nH]c2ccccc12 (H-[NMeL][NMeL][NMeL][NMeL]-Tryptamide)
- IC50 (Plasmodium falciparum): 0.6 µg/mL (≈ 0.897 µM)

Compound: CC(C)C[C@@H](NC=O)C(=O)N[C@@H]1C(=O)N[C@H](Cc2ccccc2)C(=O)N[C@H](C(C)C)C(=O)N[C@@H](Cc2ccc(O)cc2)C(=O)N[C@@H](Cc2c[nH]c3ccccc23)C(=O)O[C@@H]1C
- IC50 (Plasmodium falciparum): 0.995 µg/mL (≈ 1.19 µM)

Compound: CN[C@@H](Cc1ccccc1)C(=O)N(C)[C@H](C(=O)N(C)[C@@H](CC(C)C)C(=O)N(C)[C@H](C(=O)NCCc1ccccc1)C(C)C)C(C)C (H-[NMeF][NMeV][NMeL][NMeV]-NHPhenethyl)
- IC50 (Plasmodium falciparum): 0.1 µg/mL (≈ 0.157 µM)

Compound: CN[C@H](C(=O)N(C)[C@H](C(=O)N(C)[C@H](C(=O)N(C)[C@H](C(=O)NCCc1ccccc1)C(C)C)C(C)C)C(C)C)C(C)(C)O (H-[NMeVal(β-OH)][NMeV][NMeV][NMeV]-NHPhenethyl)
- Drug metabolism [9]: Metabolite_Detected

Continued, in another order:

- Drug metabolism [1]: Metabolite_Detected
- Drug metabolism [2]: Metabolite_Detected
- Drug metabolism [4]: Metabolite_Detected
Compound: CC(C)[C@H](N)C(=O)N[C@H](C(=O)N[C@H](C(=O)N[C@H](C(=O)NCCc1ccccc1)C(C)C)C(C)C)C(C)C (H-VVVV-NHPhenethyl)
- half-life at 500 µM [3]: 30 min

- Drug metabolism [5]: Metabolite_Detected
Compound: CC(C)[C@H](N)C(=O)N[C@H](C(=O)N[C@H](C(=O)N[C@H](C(=O)NCCc1ccccc1)C(C)C)C(C)(C)O)C(C)C (H-VV[Val(3-OH)]V-NHPhenethyl)

- Drug metabolism [5]: Metabolite_Detected
Compound: CC(C)[C@H](N)C(=O)N[C@H](C(=O)N[C@H](C(=O)N[C@H](C(=O)NCCc1ccccc1)C(C)C)C(C)C)C(C)(C)O (H-V[Val(3-OH)]VV-NHPhenethyl)

- permeability [10]: Impermeable
Compound: CC(C)[C@H](N)C(=O)N[C@H](C(=O)N[C@H](C(=O)N[C@@H](Cc1ccccc1)C(=O)NCCc1ccccc1)C(C)C)C(C)C (H-VVVF-NHPhenethyl)

- Drug metabolism [5]: Metabolite_Detected
Compound: CC(C)[C@H](N)C(=O)N[C@H](C(=O)N[C@H](C(=O)N[C@H](C(=O)NCCc1ccc(O)cc1)C(C)C)C(C)C)C(C)C (H-VVVV-{NH(4-OH-phenethyl)})

- permeability [10]: Permeable
Compound: CN[C@H](C(=O)N(C)[C@H](C(=O)N(C)[C@H](C(=O)N(C)[C@@H](CC(C)C)C(=O)NCCc1ccccc1)C(C)C)C(C)C)C(C)C (H-[NMeV][NMeV][NMeV][NMeL]-NHPhenethyl)
- half-life at 500 µM [3]: > 240 min

- permeability [10]: Impermeable
Compound: CC(C)C[C@H](NC(=O)[C@@H](NC(=O)[C@@H](NC(=O)[C@@H](N)C(C)C)C(C)C)C(C)C)C(=O)NCCc1ccccc1 (H-VVVL-NHPhenethyl)
- half-life at 500 µM [3]: 30 min
